Measured values taken from ChEMBL document CHEMBL5724806, “Unraveling interindividual differences and functional consequences of gut microbial metabolism of immunosuppressants” (2024).

Experiments:
Format in all cases: ADME
[1] = (§1) The drug is tested on the gut metagenome community of A-08 with ENA study accession number: PRJEB31790 for biotransformation under anaerobic condition. The drug concentrations were measured over 7 timepoints collected between 0 and 12 hours of incubation by liquid-chromatography-coupled mass spectrometry (LC–MS); parameters: dose 5 uM, timepoint 0, 0.75, 1.5, 3, 6, 9, 12 hours; conditions: 5 µM
[2] = as §1, with “A-05” for “A-08”; parameters: dose 5 uM, timepoint 0, 0.75, 1.5, 3, 6, 9, 12 hours; conditions: 5 µM
[3] = The drug is tested on Lactobacillus ruminis strain: ATCC25644 for biotransformation under anaerobic condition. The drug concentrations were measured over 6 timepoints collected between 0 and 12 hours of incubation by liquid-chromatography-coupled mass spectrometry (LC–MS); parameters: dose 5 uM, timepoint 0, 1.5, 3, 6, 9, 12 hours; conditions: ligilactobacillus ruminis, 5 µM
[4] = as §1, with “A-07” for “A-08”; parameters: dose 5 uM, timepoint 0, 0.75, 1.5, 3, 6, 9, 12 hours; conditions: 5 µM
[5] = The drug is tested on Lactobacillus reuteri strain: DSM20016 for biotransformation under microaerobic condition. The drug concentrations were measured over 6 timepoints collected between 0 and 12 hours of incubation by liquid-chromatography-coupled mass spectrometry (LC–MS); parameters: dose 5 uM, timepoint 0, 1.5, 3, 6, 9, 12 hours; conditions: limosilactobacillus reuteri, 5 µM
[6] = as §1, with “P-04” for “A-08”; parameters: dose 5 uM, timepoint 0, 0.75, 1.5, 3, 6, 9, 12 hours; conditions: 5 µM
[7] = as §1, with “A-01” for “A-08”, “microaerobic” for “anaerobic”; parameters: dose 5 uM, timepoint 0, 0.75, 1.5, 3, 6, 9, 12 hours; conditions: 5 µM
[8] = The drug is tested on Capnocytophaga ochracea strain: DSM7271 for biotransformation under microaerobic condition. The drug concentrations were measured over 6 timepoints collected between 0 and 12 hours of incubation by liquid-chromatography-coupled mass spectrometry (LC–MS); parameters: dose 5 uM, timepoint 0, 1.5, 3, 6, 9, 12 hours; conditions: 5 µM
[9] = as §1, with “A-01” for “A-08”; parameters: dose 5 uM, timepoint 0, 0.75, 1.5, 3, 6, 9, 12 hours; conditions: 5 µM
[10] = The drug is tested on Clostridium scindens strain: DSM5676 for biotransformation under anaerobic condition. The drug concentrations were measured over 6 timepoints collected between 0 and 12 hours of incubation by liquid-chromatography-coupled mass spectrometry (LC–MS); parameters: dose 5 uM, timepoint 0, 1.5, 3, 6, 9, 12 hours; conditions: 5 µM
[11] = The drug is tested on Lactobacillus fermentum strain: DSM20052 for biotransformation under microaerobic condition. The drug concentrations were measured over 6 timepoints collected between 0 and 12 hours of incubation by liquid-chromatography-coupled mass spectrometry (LC–MS); parameters: dose 5 uM, timepoint 0, 1.5, 3, 6, 9, 12 hours; conditions: limosilactobacillus fermentum, 5 µM
[12] = The drug is tested on Streptococcus sanguinis strain: DSM20567 for biotransformation under microaerobic condition. The drug concentrations were measured over 6 timepoints collected between 0 and 12 hours of incubation by liquid-chromatography-coupled mass spectrometry (LC–MS); parameters: dose 5 uM, timepoint 0, 1.5, 3, 6, 9, 12 hours; conditions: 5 µM
[13] = The drug is tested on Bacteroides uniformis strain: DSM6597 for biotransformation under anaerobic condition. The drug concentrations were measured over 6 timepoints collected between 0 and 12 hours of incubation by liquid-chromatography-coupled mass spectrometry (LC–MS); parameters: dose 5 uM, timepoint 0, 1.5, 3, 6, 9, 12 hours; conditions: 5 µM
[14] = as §1, with “P-02” for “A-08”, “microaerobic” for “anaerobic”; parameters: dose 5 uM, timepoint 0, 0.75, 1.5, 3, 6, 9, 12 hours; conditions: 5 µM
[15] = as §1, with “A-09” for “A-08”; parameters: dose 5 uM, timepoint 0, 0.75, 1.5, 3, 6, 9, 12 hours; conditions: 5 µM
[16] = The drug is tested on Bacteroides caccae strain: DSM19024 for biotransformation under anaerobic condition. The drug concentrations were measured over 6 timepoints collected between 0 and 12 hours of incubation by liquid-chromatography-coupled mass spectrometry (LC–MS); parameters: dose 5 uM, timepoint 0, 1.5, 3, 6, 9, 12 hours; conditions: 5 µM
[17] = The drug is tested on Lactobacillus fermentum strain: DSM20052 for biotransformation under anaerobic condition. The drug concentrations were measured over 6 timepoints collected between 0 and 12 hours of incubation by liquid-chromatography-coupled mass spectrometry (LC–MS); parameters: dose 5 uM, timepoint 0, 1.5, 3, 6, 9, 12 hours; conditions: limosilactobacillus fermentum, 5 µM
[18] = The drug is tested on Gemella haemolysans strain: DSM107751 for biotransformation under microaerobic condition. The drug concentrations were measured over 6 timepoints collected between 0 and 12 hours of incubation by liquid-chromatography-coupled mass spectrometry (LC–MS); parameters: dose 5 uM, timepoint 0, 1.5, 3, 6, 9, 12 hours; conditions: 5 µM
[19] = as §1, with “A-03” for “A-08”, “microaerobic” for “anaerobic”; parameters: dose 5 uM, timepoint 0, 0.75, 1.5, 3, 6, 9, 12 hours; conditions: 5 µM
[20] = The drug is tested on Collinsella aerofaciens strain: DSM3979 for biotransformation under anaerobic condition. The drug concentrations were measured over 6 timepoints collected between 0 and 12 hours of incubation by liquid-chromatography-coupled mass spectrometry (LC–MS); parameters: dose 5 uM, timepoint 0, 1.5, 3, 6, 9, 12 hours; conditions: 5 µM
[21] = The drug is tested on Bacteroides ovatus strain: ATCC 8483 for biotransformation under anaerobic condition. The drug concentrations were measured over 6 timepoints collected between 0 and 12 hours of incubation by liquid-chromatography-coupled mass spectrometry (LC–MS); parameters: dose 5 uM, timepoint 0, 1.5, 3, 6, 9, 12 hours; conditions: 5 µM
[22] = The drug is tested on Enterococcus faecalis strain: ATCC29212 for biotransformation under microaerobic condition. The drug concentrations were measured over 6 timepoints collected between 0 and 12 hours of incubation by liquid-chromatography-coupled mass spectrometry (LC–MS); parameters: dose 5 uM, timepoint 0, 1.5, 3, 6, 9, 12 hours; conditions: 5 µM
[23] = The drug is tested on Eubacterium rectale strain: DSM17629 for biotransformation under anaerobic condition. The drug concentrations were measured over 6 timepoints collected between 0 and 12 hours of incubation by liquid-chromatography-coupled mass spectrometry (LC–MS); parameters: dose 5 uM, timepoint 0, 1.5, 3, 6, 9, 12 hours; conditions: agathobacter rectalis, 5 µM
[24] = as §1, with “A-06” for “A-08”, “microaerobic” for “anaerobic”; parameters: dose 5 uM, timepoint 0, 0.75, 1.5, 3, 6, 9, 12 hours; conditions: 5 µM
[25] = The drug is tested on Alloscardovia omnicolens strain: DSM21503 for biotransformation under microaerobic condition. The drug concentrations were measured over 6 timepoints collected between 0 and 12 hours of incubation by liquid-chromatography-coupled mass spectrometry (LC–MS); parameters: dose 5 uM, timepoint 0, 1.5, 3, 6, 9, 12 hours; conditions: 5 µM
[26] = The drug is tested on Bacteroides fragilis strain: DSM2151 for biotransformation under anaerobic condition. The drug concentrations were measured over 6 timepoints collected between 0 and 12 hours of incubation by liquid-chromatography-coupled mass spectrometry (LC–MS); parameters: dose 5 uM, timepoint 0, 1.5, 3, 6, 9, 12 hours; conditions: 5 µM
[27] = The drug is tested on Blautia hansenii strain: DSM20583 for biotransformation under anaerobic condition. The drug concentrations were measured over 6 timepoints collected between 0 and 12 hours of incubation by liquid-chromatography-coupled mass spectrometry (LC–MS); parameters: dose 5 uM, timepoint 0, 1.5, 3, 6, 9, 12 hours; conditions: 5 µM
[28] = The drug is tested on Actinomyces naeslundi strain: DSM43013 for biotransformation under microaerobic condition. The drug concentrations were measured over 6 timepoints collected between 0 and 12 hours of incubation by liquid-chromatography-coupled mass spectrometry (LC–MS); parameters: dose 5 uM, timepoint 0, 1.5, 3, 6, 9, 12 hours; conditions: actinomyces naeslundii, 5 µM
[29] = The drug is tested on Streptococcus anginosus strain: DSM20563 for biotransformation under microaerobic condition. The drug concentrations were measured over 6 timepoints collected between 0 and 12 hours of incubation by liquid-chromatography-coupled mass spectrometry (LC–MS); parameters: dose 5 uM, timepoint 0, 1.5, 3, 6, 9, 12 hours; conditions: 5 µM
[30] = as §1, with “A-05” for “A-08”, “microaerobic” for “anaerobic”; parameters: dose 5 uM, timepoint 0, 0.75, 1.5, 3, 6, 9, 12 hours; conditions: 5 µM

Structure (SMILES)	Bacterial Biotransformation [1]	Bacterial Biotransformation [2]	Bacterial Biotransformation [3]	Bacterial Biotransformation [4]	Bacterial Biotransformation [5]	Bacterial Biotransformation [6]	Bacterial Biotransformation [7]	Bacterial Biotransformation [8]	Bacterial Biotransformation [9]	Bacterial Biotransformation [10]	Bacterial Biotransformation [11]	Bacterial Biotransformation [12]	Bacterial Biotransformation [13]	Bacterial Biotransformation [14]	Bacterial Biotransformation [15]	Bacterial Biotransformation [16]	Bacterial Biotransformation [17]	Bacterial Biotransformation [18]	Bacterial Biotransformation [19]	Bacterial Biotransformation [20]	also measured
C[C@]12CCC(=O)C=C1CC[C@@H]1[C@@H]2C(=O)C[C@@]2(C)[C@H]1CC[C@]2(O)C(=O)CO [CORTISONE]	Compound metabolized	Compound metabolized	Compound NOT metabolized	Compound metabolized	Compound NOT metabolized	Compound metabolized	Compound metabolized	Compound NOT metabolized	Compound metabolized	Compound metabolized	Compound NOT metabolized	Compound NOT metabolized	Compound NOT metabolized	Compound metabolized	Compound metabolized	Compound NOT metabolized	Compound NOT metabolized	Compound NOT metabolized	Compound metabolized	Compound NOT metabolized	Bacterial Biotransformation [21]: Compound NOT metabolized; Bacterial Biotransformation [22]: Compound NOT metabolized; Bacterial Biotransformation [23]: Compound NOT metabolized; Bacterial Biotransformation [24]: Compound metabolized; Bacterial Biotransformation [25]: Compound NOT metabolized; Bacterial Biotransformation [26]: Compound NOT metabolized; Bacterial Biotransformation [27]: Compound NOT metabolized; Bacterial Biotransformation [28]: Compound NOT metabolized; Bacterial Biotransformation [29]: Compound NOT metabolized; Bacterial Biotransformation [30]: Compound metabolized
C[C@@H]1C[C@H]2[C@@H]3CCC4=CC(=O)C=C[C@]4(C)[C@@]3(F)[C@@H](O)C[C@]2(C)[C@@]1(O)C(=O)CO [DEXAMETHASONE]	Compound NOT metabolized	Compound NOT metabolized	Compound NOT metabolized	Compound metabolized	Compound NOT metabolized	Compound NOT metabolized	Compound NOT metabolized	Compound NOT metabolized	Compound NOT metabolized	Compound metabolized	Compound NOT metabolized	Compound NOT metabolized	Compound NOT metabolized	Compound NOT metabolized	Compound metabolized	Compound NOT metabolized	Compound NOT metabolized	Compound NOT metabolized	Compound NOT metabolized	Compound NOT metabolized	Bacterial Biotransformation [21]: Compound NOT metabolized; Bacterial Biotransformation [22]: Compound NOT metabolized; Bacterial Biotransformation [23]: Compound NOT metabolized; Bacterial Biotransformation [24]: Compound metabolized; Bacterial Biotransformation [25]: Compound NOT metabolized; Bacterial Biotransformation [26]: Compound NOT metabolized; Bacterial Biotransformation [27]: Compound NOT metabolized; Bacterial Biotransformation [28]: Compound NOT metabolized; Bacterial Biotransformation [29]: Compound NOT metabolized; Bacterial Biotransformation [30]: Compound NOT metabolized
